# According to ChEMBL document CHEMBL1150312, “The SAR studies of novel CB2 selective agonists, benzimidazolone derivatives” (Bioorg Med Chem Lett, 2008):
# Assay: Lipophilicity, log D at pH 7.4
# Type: physicochemical
# Settings: buffer
row,Structure (SMILES),logD
1,CC(C)(O)Cn1c(=O)n(C(=O)N[C@H](C(N)=O)C(C)(C)C)c2ccccc21,2.2
2,CC(C)(O)CCn1c(=O)n(C(=O)N[C@H](C(N)=O)C(C)(C)C)c2ccccc21,2.2
3,CC(C)(C)[C@H](NC(=O)n1c(=O)n(CC2(O)CCOCC2)c2ccccc21)C(N)=O,1.6
4,CC(C)(C)[C@H](NC(=O)n1c(=O)n(CC2CCCO2)c2ccccc21)C(N)=O (stereo not given in full),2.1
5,CN(C)CCn1c(=O)n(C(=O)N[C@H](C(N)=O)C(C)(C)C)c2ccccc21,1.5
6,CC(C)(C)[C@H](NC(=O)n1c(=O)n(CCC2(O)CCOCC2)c2ccccc21)C(N)=O,1.9
7,CC(C)(C)[C@H](NC(=O)n1c(=O)n(CCC2CCOCC2)c2ccccc21)C(N)=O,2.4
8,CC(C)(C)[C@H](NC(=O)n1c(=O)n(CCN2CCCC2)c2ccccc21)C(N)=O,1.5
9,CC(C)CCn1c(=O)n(C(=O)N[C@H](C(N)=O)C(C)(C)C)c2ccccc21,3.4

# Assay: Bioavailability in rat at 3 mg/kg, po
# Type: ADME, organism-based
# Settings: in vivo
row,Structure (SMILES),bioavailability
1,CC(C)(O)CCn1c(=O)n(C(=O)N[C@H](C(N)=O)C(C)(C)C)c2ccccc21,33%
